Reference: patent US20120041068A1, “Extended Release Pharmaceutical Preparations for Active Pharmaceutical Ingredients with pH Dependent Solubility” (Aptapharma, Inc., priority 2010, published 2012)
Structures can show the parent of a compound that is named as a salt.

Assay: Effect of crystallization inhibitor on guanfacine HCl solubility (clear vs precipitate on storage)
Format: physicochemical
Settings: in the presence of polyvinyl pyrrolidone vs comparison formulation without polyvinyl pyrrolidone
From the text: As crystallization inhibitors, highly dispersed silicon dioxide or macromolecular substances are suitable.

tendency toward crystal formation: less tendency toward crystal formation
SMILES: N=C(N)NC(=O)Cc1c(Cl)cccc1Cl [guanfacine, guanfacine hydrochloride]
